Entries after “also recorded” stand apart in the source; their conditions may differ.
How the values were obtained:
[1] = Serum stability assay at 37 °C (radio-UHPLC); format: in vitro ADME, human; details: for stability in human serum: after only 15 min
Procedure: Either [^18F]12 or [^18F]13 (20–40 MBq) in 40 µL EtOH aliquots was incubated with 360 µL human serum (Sigma Aldrich, Darmstadt, Germany) at 37 °C. After specific time intervals (5–120 min), 40 µL samples were taken from the serum incubation mixture, added to 80 µL “Supersol” solubilizing agent (see Supplementary Materials Table S6) and cooled over ice for 2 min. Thereafter, the cooled mixture was centrifuged at 4 °C (15,000 rpm) for 3 min and 80 µL of the supernatant solution was monitored with radio-UHPLC. A gradient of 5% to 45% acetonitrile in 7.5 min was used for enhanced separation.
(§1) The radiochemical purity and identity of [^18F]12 and [^18F]13 was analyzed with radio-HPLC. […] Prior to a biological evaluation, preliminary stability studies of [^18F]12 and [^18F]13 were performed in human serum at 37 °C (Figure 3A,B). The stability studies were performed by taking an aliquot of the radiolabeled product solution and incubating the product mixture in the desired solvent or human serum at 37 °C for the given time points. In both cases, decomposition of [^18F]12 and [^18F]13 was evident from the first peak in the radioactive channel (tR: 0.6–1.0), most likely due to the release of [^18F]fluoride, which could be detected using UHPLC analysis from the first time point of 15 min and continued until 120 min. After 60 min, approximately 20% of [^18F]12 and 19% of [^18F]13 had been degraded; following a 120 min incubation, approximately 38% of both [^18F]12 and [^18F]13 had been degraded.

[2] = Stability in PBS (pH 7.4); format: physicochemical; details: PBS pH 7.4, 120 min
Procedure: as §1

Stability in EtOH = format: physicochemical; details: 120 min
Procedure: In addition, we performed a series of stability studies of compounds [^18F]12 and [^18F]13 in EtOH, phosphate-buffered saline (PBS, pH 7.4) and human serum (37 °C) to provide an indication of the rates of in vivo defluorination. […] These findings correlate with the unwanted accumulation of activity in the bones and joints obtained during PET imaging experiments in a healthy mice (Figure 5A,B).

human recombinant FAP = target: T1, human recombinant FAP (Homo sapiens, UniProt Q12884); assay: Fluorogenic FAP enzyme inhibition assay (BPS Bioscience #80210, Ala-Pro-AMC substrate); format: biochemical; details: for Hill Coefficient: mean with 95% confidence interval in brackets
T1 construct: purchased BPS Bioscience 80210
T1 sequence (Q12884 1-760): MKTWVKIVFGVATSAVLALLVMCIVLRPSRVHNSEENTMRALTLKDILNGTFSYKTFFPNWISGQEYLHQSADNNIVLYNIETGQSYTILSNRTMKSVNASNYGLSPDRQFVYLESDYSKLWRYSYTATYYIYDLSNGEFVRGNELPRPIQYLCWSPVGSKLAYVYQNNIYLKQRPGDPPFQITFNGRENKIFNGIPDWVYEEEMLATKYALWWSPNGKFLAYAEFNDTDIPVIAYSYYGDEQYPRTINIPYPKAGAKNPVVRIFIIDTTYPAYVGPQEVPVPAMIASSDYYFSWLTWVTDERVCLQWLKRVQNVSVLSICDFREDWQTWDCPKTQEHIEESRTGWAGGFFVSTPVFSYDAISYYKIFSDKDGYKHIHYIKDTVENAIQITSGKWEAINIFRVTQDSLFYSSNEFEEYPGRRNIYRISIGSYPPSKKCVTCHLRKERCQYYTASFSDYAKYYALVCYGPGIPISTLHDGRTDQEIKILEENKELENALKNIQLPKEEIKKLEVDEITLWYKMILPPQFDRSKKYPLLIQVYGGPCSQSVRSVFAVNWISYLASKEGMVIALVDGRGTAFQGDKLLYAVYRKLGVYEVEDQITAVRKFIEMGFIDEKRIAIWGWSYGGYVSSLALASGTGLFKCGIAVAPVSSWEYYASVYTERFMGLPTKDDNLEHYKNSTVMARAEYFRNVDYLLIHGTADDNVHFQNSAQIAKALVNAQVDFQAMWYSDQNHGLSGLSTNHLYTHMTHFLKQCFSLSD
Procedure: To determine the inhibitory capacity, a commercial fluorogenic FAP assay was used (BPS Bioscience, San Diego, CA, USA, #80210) according to the manufacturer’s instructions. […] On the day of testing, a 1:10 dilution in the supplied DPP assay buffer was performed for all compounds. […] The fluorogenic peptide substrate (Ala-Pro-AMC dipeptide) was added and the reaction started with the addition of the human recombinant FAP (25 ng/µL). Immediately, the plate was loaded into a multilabel plate reader (Biotek Cytation 5, Agilent, Bellevue, WA, USA) and each well was measured at an excitation wavelength window of 360 ± 20 nm and an emission wavelength window of 450 ± 20 nm. The fluorescence intensity was measured over 15 min in intervals of 15 s, resulting in 61 data points per curve. Controls included blanks (omission of substrate, enzyme and inhibitor), negative (omission of enzyme) and positive controls (omission of inhibitor). The recorded time courses of the type (RFU − RFU0) = f(t) were analyzed with linear regression of the experimental data over the entire measurement period. […] (2) rate=Bottom+(Top−Bottom)×[I]^nH/[I]^nH+IC50^nH
Spanning a range of compound concentrations (50 pM–1 µM), fluorescence intensity changes were followed over 15 min.

[3] = Liver cytosol assay (HLC); format: in vitro ADME, human; details: for stability toward HLC: 2 mg/mL HLC, up to 60 min, 37 °C
Procedure: (§2) Liver cytosol experiments with [^18F]12 were performed according to reported procedures.
(§3) Vanilin (40 µM final) was used as positive control for the activity of the liver cytosols and was separately incubated under the conditions described above (1% EtOH final). […] More than 80% of the vanilin had been degraded after 60 min in the presence of HLC, while around 60% of the vanilin had been degraded with RLC. There was no change in the degradation rate with and without 1% EtOH in the incubation mixture.

[4] = LogD7.4 determination by n-octanol/PBS partitioning; format: physicochemical; details: n-octanol/phosphate-buffered saline; partitioning between PBS pH 7.4 and octanol
Procedure: The LogD7.4 determination of [^18F]12 was determined in a similar manner as previously described and proceeded as follows. [^18F]12 (1 μL, ca. 0.5 MBq) was pipetted into an Eppendorf tube containing 600 μL of n-octanol (presaturated with phosphate-buffered saline) and 600 μL of phosphate-buffered saline buffer (0.02 M, pH = 7.4). The tube was vortexed for 15 min at room temperature, and the two phases were separated by centrifugation at 5000 rpm for 3 min. An aliquot (400 µL) from the n-octanol layer was pipetted in a vial containing phosphate-buffered saline (400 µL), the sample mixture was vortexed for 15 min at room temperature and the two phases were separated by centrifugation at 5000 rpm for 3 min. Aliquots (250 µL) from each phase were taken and measured with an automatic γ-counter after subtracting the background activity. The transfer of the aqueous phase requires particular care, as described by Linclau et al.. The partition coefficient was calculated for the acquired samples using Equation (1). (1) logD7.4=log counts per minute (octanol)/counts per minute (phosphate buffer)

[5] = Liver cytosol assay (RLC); format: in vitro ADME, rat; details: for stability toward RLC: 2 mg/mL RLC, up to 60 min, 37 °C
Procedure: as §2, §3

[6] = Small-animal PET distribution in healthy mice; format: in vivo, BALB/cJRj mice
Procedure: All animal experiments were carried out according to the guidelines of the German Regulation for Animal Welfare. The protocol was approved by the local Ethical Committee for Animal Experiments. Small-animal PET was performed using the nanoScan® PET/CT (Mediso Medical Imaging Systems, Budapest, Hungary). Each animal (BALB/cJRj mice, n = 2) received an intravenous injection of 10 MBq [^18F]12 delivered in 0.15 mL of 0.154 mol/L NaClaq through a tail vein catheter. Emission of annihilation photons was recorded continuously for 2 h. A corresponding X-ray CT image was recorded and used for anatomical referencing and attenuation correction. List-mode data were sorted into sinograms with 36 frames (15 × 10 s, 5 × 30 s, 5 × 60 s, 4 × 300 s, 3 × 600 s, 4 × 900 s) and reconstructed using the Tera-Tomo™ 3D algorithm, applying corrections for decay, scatter and attenuation. […] Three-dimensional regions of interest (ROI) were created, applying fixed contrast thresholds for delineation of blood (heart content, 80%), liver (80%), kidneys (50%), bone (knee and shoulder joints, 50%), gall bladder and intestine (5%) and urinary bladder (10%). Organ-specific activity concentrations were determined as ROI-averaged standardized uptake values at mid-frame time (SUVmean). Time–activity curves were drawn using Prism 9.0 (GraphPad Software, La Jolla, CA, USA) and the activity retention within each organ was reported as the area under the curve (AUC). Excreted activity fractions were determined as the percent of the initially administered activity dose (%ID).

[7] = Procedure: Microsome experiments with [^18F]12 in the presence of NADPH were performed according to the procedure recently described by us with slight modifications. […] The radiotracer dissolved in EtOH (4 µL; 5 MBq/µL) was diluted with PBS (496 µL, 0.8% EtOH). This radiotracer solution (100 µL, 0.32% EtOH and 16 MBq/mL or 1.6 µM final) was mixed with PBS (112.5 µL) and human liver microsomes (12.5 µL of 20 mg/mL stock; 1 mg/mL final; Gibco™ Cat. No. HMMCPL, Lot. No. PL050E-B) in a 1.5 mL Eppendorf tube and the mixture was warmed for 5 min at 37 °C. Subsequently, NADPH (25 µL of freshly prepared 20 mM solution in PBS, 2 mM final) was added and the mixture was incubated at 37 °C. As a control incubation, NADPH was omitted and replaced by PBS. After distinct time points (10, 20, 30 and 60 min), an aliquot (40 µL) was withdrawn and added to ice-cooled CH3CN (160 µL). The mixture was vortexed for 30 s, stored on ice for 4 min and centrifuged (5 min at 15,000 rpm). The resulting supernatant was used for radio-HPLC analysis using the Shimadzu system described in Section 2.2 with the following conditions. A C18 column Kinetex® from Phenomenex (5 µm, 100 Å, LC Column 250 × 4.6 mm) served as stationary phase. The eluent consisted of (A) 0.1% trifluoroacetic acid in H2O and (B) MeCN; flow rate 1 mL/min; elution profile A/B: t0 min 70/30–t10.0 min 70/30–t11.0 min 5/95–t16.0 min 5/95–t17.0 min 70/30–t22.0 min 70/30.
Testosterone (40 µM final) was used as a positive control for the activity of the HLM and was separately incubated under the conditions described above (0% EtOH final).

[8] = positive control, 40 µM, after 60 min

## N#C[C@@H]1CC(F)(F)CN1C(=O)CNC(=O)c1ccnc2ccc(OCCCN3CCN(C(=O)c4cccc(OS(=O)(=O)[18F])c4)CC3)cc12 [[^18F]13]
[1]; 120 min incubation
  fraction degraded in human serum: approximately 38%
[1]; after 60 min
  fraction degraded in human serum: ~19%
[1]
  stability in human serum: clear signs of instability
[2]
  stability in PBS: stable
Stability in EtOH
  stability in EtOH: stable

## N#C[C@@H]1CC(F)(F)CN1C(=O)CNC(=O)c1ccnc2ccc(OCCCN3CCN(C(=O)c4cccc(OS(=O)(=O)F)c4)CC3)cc12 [compound 13]
Human recombinant FAP
  IC50: 4.17 nM
  Hill Coefficient: −1.27 (−1.98 to −0.91)

## N#C[C@@H]1CC(F)(F)CN1C(=O)CNC(=O)c1ccnc2ccc(OCCCN3CCN(C(=O)c4ccc(OS(=O)(=O)[18F])cc4)CC3)cc12 [[^18F]12]
[1]; 120 min incubation
  fraction degraded in human serum: approximately 38%
[1]; after 60 min
  fraction degraded in human serum: approximately 20%
[1]
  stability in human serum: clear signs of instability
[3]
  stability toward HLC: largely stable; also recorded: mostly stable
[3]; listed as [18F]12
  stability toward HLC: No degradation
[3]; liver cytosols as source of AO
  substrate of aldehyde oxidase (AO): not to be a substrate of AO
[4]
  logD: 1.81
[5]
  stability toward RLC: largely stable; also recorded: mostly stable
[5]; listed as [18F]12
  stability toward RLC: No degradation
[2]
  stability in PBS: stable
[6]; i.v., after injection
  time of maximum activity concentration in kidney: 2 min
  time of maximum activity concentration in liver: 2 min
[6]; i.v., within 2 h
  activity concentration in bones: continuously increasing
[6]; retention in gall bladder and intestine, 2 h
  fraction of initially delivered activity dose excreted via hepatobiliary pathway: 45%
[6]; retention in urinary bladder, 2 h
  fraction of initially delivered activity dose excreted via renal pathway: 10%
Stability in EtOH
  stability in EtOH: stable
[7]; 1 mg/mL HLM, 2 mM NADPH, 1.6 µM tracer, 37 °C, one-phase decay
  half-time toward HLM: 4.4 min
[7]; NADPH omitted, 60 min
  stability in presence of HLM without NADPH (control): apparently stable

## N#C[C@@H]1CC(F)(F)CN1C(=O)CNC(=O)c1ccnc2ccc(OCCCN3CCN(C(=O)c4ccc(OS(=O)(=O)F)cc4)CC3)cc12 [compound 12]
Human recombinant FAP
  IC50: 9.63 nM
  Hill Coefficient: −1.56 (−2.43 to −1.059)

## N#C[C@@H]1CC(F)(F)CN1C(=O)CNC(=O)c1ccnc2ccc(OCCCN3CCN(C(=O)CN4CCN(CC(=O)O)CCN(CC(=O)O)CCN(CC(=O)O)CC4)CC3)cc12 [FAPI-04, reference compound]
Human recombinant FAP
  Hill Coefficient: −1.51 (−2.51 to −0.95)

## C[C@]12CC[C@H]3[C@@H](CCC4=CC(=O)CC[C@@]43C)[C@@H]1CC[C@@H]2O [Testosterone, reference compound]
[7]; human
  time after which metabolization was completed: > 30 min

## COc1cc(C=O)ccc1O [vanilin, Vanilin, reference compound]
[3]; [8]
  fraction degraded in presence of HLC: More than 80%
[5]; [8]
  fraction degraded with RLC: around 60%
